Results from publication PMC5584945, “Evaluation of robenidine analog NCL195 as a novel broad-spectrum antibacterial agent” (PLoS ONE, 2017).
Converted amounts (≈) assume the structure as drawn. “Also recorded” adds a separate entry of the source. Where two headings read alike, the source gives them in different places.

Columns and labels:
S. pneumoniae = test: MIC, broth micro-dilution (CLSI); assay type: cell-based, Streptococcus pneumoniae; settings: for MIC / MIC50 / MIC90: Streptococcus pneumoniae
[1] = Pharmacokinetics after IV administration; assay type: in vivo, mouse
Procedure: Mice had access to food and water ad libitum throughout the pre- and post-dose sampling period. The Animal Ethics Committee of the Monash Institute of Pharmaceutical Sciences reviewed and approved all animal PK experiments (approval number MIPS.2013.33). The PK studies were conducted in compliance with the Australian Code of Practice for the Care and Use of Animals for Scientific Purposes (7th Edition 2004). […] For both the IV and IP administration, a maximum of two samples were obtained from each mouse, with samples being taken either via submandibular bleed (approximately 120 μl; conscious sampling) or terminal cardiac puncture (0.6 ml; under inhaled Isoflurane anesthesia). No urine samples were collected as mice were housed in bedded cages during the study. […] Mice were humanely sacrificed by cervical dislocation while under anaesthesia (using gaseous isoflurane) at the end of experiments. Blood was collected directly into polypropylene Eppendorf tubes containing heparin as anti-coagulant, and stabilization cocktail (containing Complete (a protease inhibitor cocktail with EDTA) and potassium fluoride) to minimize the potential for ex vivo degradation of the test compounds in blood/plasma samples. Once collected, blood samples were centrifuged immediately, supernatant plasma was removed, and stored at either -80°C (for the IV exposure) or at -20°C (for the IP exposure) until analysis by liquid chromatography-mass spectrometry (LC-MS). Following protein precipitation with acetonitrile, thawed plasma samples were analyzed by LC-MS (Waters Micromass Quattro Premier coupled to a Waters Acquity UPLC) using positive electrospray ionization operating in MRM mode.

[2] = S1 Table isolates, 5% FBS + 3% washed RBC
[3] = S1 Table isolates, 10% FBS + 3% washed RBC
[4] = ATCC6303, ATCC 6303 (serotype 3), 5% FBS + 3% washed RBC
[5] = ATCC6303, ATCC 6303 (serotype 3), 10% FBS + 3% washed RBC
[6] = D39/D39LUX (serotype 2), 5% FBS
[7] = D39/D39LUX (serotype 2), 10% FBS
[8] = male Swiss outbred mice, IV 5 mg/kg, 5 mg/kg

## C/C(=N\NC(=N)N/N=C(\C)c1ccc(C(C)(C)C)cc1)c1ccc(C(C)(C)C)cc1 [NCL219, (E)-N'-((E)-1-(4-(tert-butyl)phenyl)ethylidene)-2-(1-(4-(tert-butyl)phenyl)ethylidene)hydrazine-1-carboximidhydrazide]
S. pneumoniae; 21 isolates
  MIC range: 1 to 8 µg/mL
S. pneumoniae; [2]
  MIC range: 1 to 8 µg/mL
S. pneumoniae; [3]
  MIC range: 1 to 8 µg/mL
S. pneumoniae; A66.1 (serotype 3), 5% FBS
  MIC: 4 µg/mL (≈ 9.86 µM)
S. pneumoniae; A66.1 (serotype 3), 10% FBS
  MIC: 4 µg/mL (≈ 9.86 µM)
S. pneumoniae; [4]
  MIC: 1 µg/mL
S. pneumoniae; [5]
  MIC: 1 µg/mL
S. pneumoniae; [6]
  MIC: 4 µg/mL (≈ 9.86 µM)
S. pneumoniae; [7]
  MIC: 4 µg/mL (≈ 9.86 µM)
S. pneumoniae; L82016 (serotype 6B), 5% FBS
  MIC: 2 µg/mL (≈ 4.93 µM)
S. pneumoniae; L82016 (serotype 6B), 10% FBS
  MIC: 2 µg/mL (≈ 4.93 µM)
S. pneumoniae; P9 (serotype 6A), 5% FBS
  MIC: 4 µg/mL (≈ 9.86 µM)
S. pneumoniae; P9 (serotype 6A), 10% FBS
  MIC: 4 µg/mL (≈ 9.86 µM)
S. pneumoniae; P21 (serotype 3), 5% FBS
  MIC: 4 µg/mL (≈ 9.86 µM)
S. pneumoniae; P21 (serotype 3), 10% FBS
  MIC: 4 µg/mL (≈ 9.86 µM)
S. pneumoniae; S1 Table isolates, 5% FBS
  MIC50: 4 µg/mL (≈ 9.86 µM)
  MIC90: 4 µg/mL (≈ 9.86 µM)
S. pneumoniae; S1 Table isolates, 10% FBS
  MIC50: 4 µg/mL (≈ 9.86 µM)
  MIC90: 8 µg/mL (≈ 19.7 µM)
S. pneumoniae; TIGR4 (serotype 4), 5% FBS
  MIC: 2 µg/mL (≈ 4.93 µM)
S. pneumoniae; TIGR4 (serotype 4), 10% FBS
  MIC: 2 µg/mL (≈ 4.93 µM)
S. pneumoniae; WCH16 (serotype 6A), 5% FBS
  MIC: 2 µg/mL (≈ 4.93 µM)
S. pneumoniae; WCH16 (serotype 6A), 10% FBS
  MIC: 2 µg/mL (≈ 4.93 µM)
S. pneumoniae; WCH43 (serotype 4), 5% FBS
  MIC: 2 µg/mL (≈ 4.93 µM)
S. pneumoniae; WCH43 (serotype 4), 10% FBS
  MIC: 2 µg/mL (≈ 4.93 µM)
S. pneumoniae; WCH46 (serotype 4), 5% FBS
  MIC: 4 µg/mL (≈ 9.86 µM)
S. pneumoniae; WCH46 (serotype 4), 10% FBS
  MIC: 4 µg/mL (≈ 9.86 µM)
S. pneumoniae; WCH57 (serotype 8), 5% FBS
  MIC: 4 µg/mL (≈ 9.86 µM)
S. pneumoniae; WCH57 (serotype 8), 10% FBS
  MIC: 4 µg/mL (≈ 9.86 µM)
S. pneumoniae; WCH86 (serotype 4), 5% FBS
  MIC: 4 µg/mL (≈ 9.86 µM)
S. pneumoniae; WCH86 (serotype 4), 10% FBS
  MIC: 4 µg/mL (≈ 9.86 µM)
S. pneumoniae; WCH89 (serotype 7), 5% FBS
  MIC: 8 µg/mL (≈ 19.7 µM)
S. pneumoniae; WCH89 (serotype 7), 10% FBS
  MIC: 4 µg/mL (≈ 9.86 µM)
S. pneumoniae; WCH92 (serotype 4), 5% FBS
  MIC: 4 µg/mL (≈ 9.86 µM)
S. pneumoniae; WCH92 (serotype 4), 10% FBS
  MIC: 4 µg/mL (≈ 9.86 µM)
S. pneumoniae; WCH137 (serotype 6A), 5% FBS
  MIC: 4 µg/mL (≈ 9.86 µM)
S. pneumoniae; WCH137 (serotype 6A), 10% FBS
  MIC: 4 µg/mL (≈ 9.86 µM)
S. pneumoniae; WCH158 (serotype 19F), 5% FBS
  MIC: 8 µg/mL (≈ 19.7 µM)
S. pneumoniae; WCH158 (serotype 19F), 10% FBS
  MIC: 8 µg/mL (≈ 19.7 µM)
S. pneumoniae; WCH184 (serotype 19F), 5% FBS
  MIC: 2 µg/mL (≈ 4.93 µM)
S. pneumoniae; WCH184 (serotype 19F), 10% FBS
  MIC: 2 µg/mL (≈ 4.93 µM)
S. pneumoniae; WCH211 (serotype 11), 5% FBS
  MIC: 4 µg/mL (≈ 9.86 µM)
S. pneumoniae; WCH211 (serotype 11), 10% FBS
  MIC: 4 µg/mL (≈ 9.86 µM)
S. pneumoniae; WU2 (serotype 3), 5% FBS
  MIC: 4 µg/mL (≈ 9.86 µM)
S. pneumoniae; WU2 (serotype 3), 10% FBS
  MIC: 4 µg/mL (≈ 9.86 µM)

## Cl.N=C(NN=Cc1ccc(Cl)cc1)NN=Cc1ccc(Cl)cc1 [NCL812, 2,2'-bis[(4-chlorophenyl)methylene] carbonimidic dihydrazide hydrochloride]
S. pneumoniae; 21 isolates
  MIC range: 2 to 8 µg/mL
S. pneumoniae; [2]
  MIC range: 4 to 8 µg/mL
S. pneumoniae; [3]
  MIC range: 2 to 8 µg/mL
S. pneumoniae; A66.1 (serotype 3), 5% FBS
  MIC: 4 µg/mL
S. pneumoniae; A66.1 (serotype 3), 10% FBS
  MIC: 4 µg/mL
S. pneumoniae; [4]
  MIC: 4 µg/mL
S. pneumoniae; [5]
  MIC: 4 µg/mL
S. pneumoniae; [6]
  MIC: 8 µg/mL
S. pneumoniae; [7]
  MIC: 8 µg/mL
S. pneumoniae; EF3030 (serotype 19F), 5% FBS
  MIC: 8 µg/mL
S. pneumoniae; EF3030 (serotype 19F), 10% FBS
  MIC: 8 µg/mL
S. pneumoniae; L82016 (serotype 6B), 5% FBS
  MIC: 4 µg/mL
S. pneumoniae; L82016 (serotype 6B), 10% FBS
  MIC: 4 µg/mL
S. pneumoniae; P9 (serotype 6A), 5% FBS
  MIC: 4 µg/mL
S. pneumoniae; P9 (serotype 6A), 10% FBS
  MIC: 4 µg/mL
S. pneumoniae; P21 (serotype 3), 5% FBS
  MIC: 4 µg/mL
S. pneumoniae; P21 (serotype 3), 10% FBS
  MIC: 4 µg/mL
S. pneumoniae; S1 Table isolates, 5% FBS
  MIC50: 4 µg/mL
  MIC90: 8 µg/mL
S. pneumoniae; S1 Table isolates, 10% FBS
  MIC50: 4 µg/mL
  MIC90: 8 µg/mL
S. pneumoniae; TIGR4 (serotype 4), 5% FBS
  MIC: 4 µg/mL
S. pneumoniae; TIGR4 (serotype 4), 10% FBS
  MIC: 4 µg/mL
S. pneumoniae; WCH16 (serotype 6A), 5% FBS
  MIC: 4 µg/mL
S. pneumoniae; WCH16 (serotype 6A), 10% FBS
  MIC: 8 µg/mL
S. pneumoniae; WCH43 (serotype 4), 5% FBS
  MIC: 4 µg/mL
S. pneumoniae; WCH43 (serotype 4), 10% FBS
  MIC: 4 µg/mL
S. pneumoniae; WCH46 (serotype 4), 5% FBS
  MIC: 4 µg/mL
S. pneumoniae; WCH46 (serotype 4), 10% FBS
  MIC: 4 µg/mL
S. pneumoniae; WCH57 (serotype 8), 5% FBS
  MIC: 4 µg/mL
S. pneumoniae; WCH57 (serotype 8), 10% FBS
  MIC: 4 µg/mL
S. pneumoniae; WCH77 (serotype 5), 5% FBS
  MIC: 4 µg/mL
S. pneumoniae; WCH77 (serotype 5), 10% FBS
  MIC: 2 µg/mL
S. pneumoniae; WCH86 (serotype 4), 5% FBS
  MIC: 4 µg/mL
S. pneumoniae; WCH86 (serotype 4), 10% FBS
  MIC: 8 µg/mL
S. pneumoniae; WCH89 (serotype 7), 5% FBS
  MIC: 4 µg/mL
S. pneumoniae; WCH89 (serotype 7), 10% FBS
  MIC: 8 µg/mL
S. pneumoniae; WCH92 (serotype 4), 5% FBS
  MIC: 4 µg/mL
S. pneumoniae; WCH92 (serotype 4), 10% FBS
  MIC: 4 µg/mL
S. pneumoniae; WCH137 (serotype 6A), 5% FBS
  MIC: 4 µg/mL
S. pneumoniae; WCH137 (serotype 6A), 10% FBS
  MIC: 4 µg/mL
S. pneumoniae; WCH158 (serotype 19F), 5% FBS
  MIC: 4 µg/mL
S. pneumoniae; WCH158 (serotype 19F), 10% FBS
  MIC: 4 µg/mL
S. pneumoniae; WCH184 (serotype 19F), 5% FBS
  MIC: 4 µg/mL
S. pneumoniae; WCH184 (serotype 19F), 10% FBS
  MIC: 4 µg/mL
S. pneumoniae; WCH211 (serotype 11), 5% FBS
  MIC: 4 µg/mL
S. pneumoniae; WCH211 (serotype 11), 10% FBS
  MIC: 4 µg/mL
S. pneumoniae; WU2 (serotype 3), 5% FBS
  MIC: 8 µg/mL
S. pneumoniae; WU2 (serotype 3), 10% FBS
  MIC: 8 µg/mL
[1]; [8]
  AUC(0-inf): ~27.9^ a h*μM
  Plasma CL: ~9.5^ a mL/min/kg
[1]; male, Swiss (outbred), mouse, plasma, iv, 5 mg/kg, male Swiss outbred mice, read-out: AUC0-inf
  AUC(0-inf): 27.9 µM·h
[1]; male, Swiss (outbred), mouse, plasma, iv, 5 mg/kg, male Swiss outbred mice, read-out: Plasma CL
  clearance: 9.5 mL/min/kg
[1]; mice, IV 5 mg/kg, 5 mg/kg
  Adverse signs after parenteral (IV) administration: adverse neurological signs; also recorded: adverse clinical signs
[1]; mouse, plasma, male Swiss outbred mice, IV 5 mg/kg, read-out: Apparent t½ (converted)
  half-life: ~8.2 h
[1]; mouse, plasma, male Swiss outbred mice, IV 5 mg/kg, read-out: Plasma VSS
  Vd: ~5.9 L/kg
